target: T1, VEGFR-2 (Homo sapiens, UniProt P35968); assay: AlphaScreen kinase assay, phosphotyrosine antibody; assay type: cell-based; conditions: 5 min preincubation, room temperature; VEGFR-2 activity determined in MCF-7 cells
T1 construct: gene KDR; not described; endogenous activity said to be determined in MCF-7 cells, but compounds were incubated with 'enzyme' (AlphaScreen)
From the text: AlphaScreen kinase assay, phosphotyrosine antibody on VEGFR-2

T1 sequence (P35968 20-1356): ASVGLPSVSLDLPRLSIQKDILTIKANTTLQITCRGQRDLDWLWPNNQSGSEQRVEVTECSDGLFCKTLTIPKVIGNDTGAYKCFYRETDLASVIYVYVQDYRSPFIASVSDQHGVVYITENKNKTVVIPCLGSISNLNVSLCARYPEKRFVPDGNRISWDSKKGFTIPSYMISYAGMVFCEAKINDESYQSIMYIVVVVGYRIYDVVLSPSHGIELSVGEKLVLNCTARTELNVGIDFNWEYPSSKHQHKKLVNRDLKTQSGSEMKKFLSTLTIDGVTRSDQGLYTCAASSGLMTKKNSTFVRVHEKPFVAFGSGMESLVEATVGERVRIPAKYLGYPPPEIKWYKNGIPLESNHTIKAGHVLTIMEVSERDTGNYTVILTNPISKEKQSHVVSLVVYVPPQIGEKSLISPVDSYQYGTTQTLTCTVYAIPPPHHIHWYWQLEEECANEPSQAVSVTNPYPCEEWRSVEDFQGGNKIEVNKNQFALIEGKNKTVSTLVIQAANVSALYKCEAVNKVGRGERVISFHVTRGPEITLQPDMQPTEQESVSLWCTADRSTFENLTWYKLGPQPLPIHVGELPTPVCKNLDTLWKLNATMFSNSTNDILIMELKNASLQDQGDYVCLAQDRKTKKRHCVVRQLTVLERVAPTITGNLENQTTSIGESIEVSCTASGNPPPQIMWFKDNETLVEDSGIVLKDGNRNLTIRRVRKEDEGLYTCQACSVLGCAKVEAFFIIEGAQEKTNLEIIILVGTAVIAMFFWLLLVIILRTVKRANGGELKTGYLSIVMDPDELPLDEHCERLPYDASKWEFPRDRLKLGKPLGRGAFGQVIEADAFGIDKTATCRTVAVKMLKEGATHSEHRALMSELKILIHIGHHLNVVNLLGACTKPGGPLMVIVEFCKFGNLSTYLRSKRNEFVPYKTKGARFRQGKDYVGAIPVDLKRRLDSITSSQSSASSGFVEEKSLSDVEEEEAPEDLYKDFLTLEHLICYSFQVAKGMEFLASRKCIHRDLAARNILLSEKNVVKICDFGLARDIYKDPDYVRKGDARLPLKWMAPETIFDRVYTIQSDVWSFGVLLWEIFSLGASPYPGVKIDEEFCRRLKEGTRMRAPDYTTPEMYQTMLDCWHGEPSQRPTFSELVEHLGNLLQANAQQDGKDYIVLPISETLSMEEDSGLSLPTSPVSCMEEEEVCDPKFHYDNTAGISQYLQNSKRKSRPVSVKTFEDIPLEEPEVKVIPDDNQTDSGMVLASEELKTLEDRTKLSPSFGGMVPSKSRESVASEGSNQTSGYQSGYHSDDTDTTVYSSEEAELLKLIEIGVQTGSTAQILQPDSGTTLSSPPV

SMILES | % Inhibition of VEGFR-2 enzyme
NNC(=O)CSc1nc2cc3ccccc3cc2c(=O)n1-c1ccc(S(N)(=O)=O)cc1 [compound 5, 4-(2-(2-Hydrazinyl-2-oxoethylthio)-4-oxobenzo[g]quinazolin-3(4H)-yl)benzenesulfonamide] | 68.44%
Cc1ccc(C)c(C=NNC(=O)CSc2nc3cc4ccccc4cc3c(=O)n2-c2ccc(S(N)(=O)=O)cc2)c1 [compound 6, 4-(2-(2-(2-(2,5-Dimethylbenzylidene)hydrazinyl)-2-oxoethylthio)-4-oxobenzo[g]quinazolin-3(4H)-yl)benzenesulfonamide] | 69.95%
NS(=O)(=O)c1ccc(-n2c(SCC(=O)NN=Cc3ccc(Br)cc3)nc3cc4ccccc4cc3c2=O)cc1 [compound 10, 4-(2-(2-(2-(4-Bromobenzylidene)hydrazinyl)-2-oxoethylthio)-4-oxobenzo[g]quinazolin-3(4H)-yl)benzenesulfonamide] | 64.89%
NS(=O)(=O)c1ccc(-n2c(SCC(=O)NN=Cc3ccc4c(c3)OCO4)nc3cc4ccccc4cc3c2=O)cc1 [compound 11, 4-(2-(2-(2-(Benzo[d][1,3]dioxol-5-ylmethylene)hydrazinyl)-2-oxoethylthio)-4-oxobenzo[g]quinazolin-3(4H)-yl)benzenesulfonamide] | 71.29%

same assay, conditions: 5 min preincubation, room temperature; VEGFR-2 activity determined in MCF-7 cells; inhibitor concentration not stated

SMILES | % Inhibition of VEGFR-2 enzyme
Cc1ccc(C=NNC(=O)CSc2nc3cc4ccccc4cc3c(=O)n2-c2ccc(S(N)(=O)=O)cc2)cc1F [compound 7, 4-(2-(2-(2-(3-Fluoro-4-methylbenzylidene)hydrazinyl)-2-oxoethylthio)-4-oxobenzo[g]quinazolin-3(4H)-yl)benzenesulfonamide] | 72.19%

same assay, conditions: 5 min preincubation, room temperature; VEGFR-2 activity determined in MCF-7 cells; read-out: IC50 on VEGFR-2 enzyme (μm)

SMILES | IC50
NS(=O)(=O)c1ccc(-n2c(SCC(=O)NN=Cc3ccc(Cl)cc3Cl)nc3cc4ccccc4cc3c2=O)cc1 [compound 9, 4-(2-(2-(2-(2,4-Dichlorobenzylidene)hydrazinyl)-2-oxoethylthio)-4-oxobenzo[g]-quinazolin-3(4H)-yl)benzenesulfonamide] | 640 nM
NS(=O)(=O)c1ccc(-n2c(SCC(=O)N3NC(=O)CC3=O)nc3cc4ccccc4cc3c2=O)cc1 [compound 20, 4-(2-(2-(3,5-Dioxopyrazolidin-1-yl)-2-oxoethylthio)-4-oxobenzo[g]quinazolin-3(4H)-yl) benzenesulfonamide] | 860 nM
CCOC(=O)c1cnn(C(=O)CSc2nc3cc4ccccc4cc3c(=O)n2-c2ccc(S(N)(=O)=O)cc2)c1N [compound 22, Ethyl 5-amino-1-(2-(4-oxo-3-(4-sulfamoylphenyl)-3,4-dihydrobenzo[g]quinazolin-2-ylthio)acetyl)-1H-pyrazole-4-carboxylate] | 830 nM
Cc1nn(C(=O)CSc2nc3cc4ccccc4cc3c(=O)n2-c2ccc(S(N)(=O)=O)cc2)c(N)c1C#N [compound 23, 4-(2-(2-(5-Amino-4-cyano-3-methyl-1H-pyrazol-1-yl)-2-oxoethylthio)-4-oxobenzo[g]quinazo-lin-3(4H)-yl) benzenesulfonamide] | 1040 nM
